“Also recorded” adds a separate entry of the source.
How the values were obtained:
Hα4β2 nAChRs = Hα4β2 nAChRs (Homo sapiens, UniProt P17787+P43681); assay: Calcium accumulation assay, HEK ts201 cells stably expressing Hα4β2 nAChRs; format: cell-based; settings: for effect / activity on Hα4β2 nAChRs: up to 100 µM
Hα3β4 nAChRs = Hα3β4 nAChRs (Homo sapiens, UniProt P30926+P32297); assay: Calcium accumulation assay, HEK ts201 cells stably expressing Hα3β4 nAChRs; format: cell-based; settings: for effect / activity on Hα3β4 nAChRs: up to 100 µM
Chain of Hα3β4 nAChRs (P32297 32-505): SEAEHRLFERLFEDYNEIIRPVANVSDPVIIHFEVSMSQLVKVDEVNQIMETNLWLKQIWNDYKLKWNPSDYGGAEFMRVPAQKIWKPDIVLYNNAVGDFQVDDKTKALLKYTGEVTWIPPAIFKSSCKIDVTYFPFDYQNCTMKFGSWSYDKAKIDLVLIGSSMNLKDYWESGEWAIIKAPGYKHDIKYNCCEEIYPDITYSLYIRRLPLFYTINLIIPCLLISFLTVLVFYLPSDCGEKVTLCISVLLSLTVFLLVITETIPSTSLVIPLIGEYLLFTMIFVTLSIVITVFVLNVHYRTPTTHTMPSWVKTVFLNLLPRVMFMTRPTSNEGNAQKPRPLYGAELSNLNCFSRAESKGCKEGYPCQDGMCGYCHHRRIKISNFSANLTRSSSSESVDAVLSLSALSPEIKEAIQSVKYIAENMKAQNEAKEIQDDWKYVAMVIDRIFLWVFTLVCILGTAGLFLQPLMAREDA
Chain of Hα3β4 nAChRs (P30926 22-498): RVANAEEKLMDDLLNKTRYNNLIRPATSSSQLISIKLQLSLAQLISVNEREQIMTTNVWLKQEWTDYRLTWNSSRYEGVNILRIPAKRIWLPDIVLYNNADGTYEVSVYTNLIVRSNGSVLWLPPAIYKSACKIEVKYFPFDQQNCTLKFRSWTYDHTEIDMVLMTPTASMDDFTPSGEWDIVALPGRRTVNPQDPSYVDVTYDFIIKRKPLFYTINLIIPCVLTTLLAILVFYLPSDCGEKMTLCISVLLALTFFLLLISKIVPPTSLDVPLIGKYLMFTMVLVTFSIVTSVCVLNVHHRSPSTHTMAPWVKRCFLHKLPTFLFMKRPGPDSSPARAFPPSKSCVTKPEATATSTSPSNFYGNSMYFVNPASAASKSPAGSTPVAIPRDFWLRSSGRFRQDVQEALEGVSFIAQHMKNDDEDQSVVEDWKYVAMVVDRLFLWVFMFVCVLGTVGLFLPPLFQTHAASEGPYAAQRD

[1] = 30 µM compound, competitive vs non-competitive test, n=4
[2] = approximate, concentration used in Figure 1

Chain of Hα4β2 nAChRs (P43681 29-627 limits assumed): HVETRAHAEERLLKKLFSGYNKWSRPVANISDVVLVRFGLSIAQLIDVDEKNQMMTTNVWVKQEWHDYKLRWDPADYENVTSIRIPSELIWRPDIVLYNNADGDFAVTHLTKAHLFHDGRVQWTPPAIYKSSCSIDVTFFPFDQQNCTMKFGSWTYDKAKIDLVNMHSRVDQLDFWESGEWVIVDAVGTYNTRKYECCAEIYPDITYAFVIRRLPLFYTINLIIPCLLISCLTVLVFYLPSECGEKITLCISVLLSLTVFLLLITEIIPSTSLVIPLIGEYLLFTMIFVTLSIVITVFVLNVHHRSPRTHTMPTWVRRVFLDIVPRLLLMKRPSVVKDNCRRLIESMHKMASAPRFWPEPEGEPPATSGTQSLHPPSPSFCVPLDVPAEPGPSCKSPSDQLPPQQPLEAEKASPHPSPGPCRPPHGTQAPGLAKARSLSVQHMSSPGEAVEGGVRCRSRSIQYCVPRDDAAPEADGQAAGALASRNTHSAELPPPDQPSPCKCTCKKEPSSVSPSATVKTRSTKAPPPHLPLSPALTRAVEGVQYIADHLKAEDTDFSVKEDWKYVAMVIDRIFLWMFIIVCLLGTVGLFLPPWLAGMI
Chain of Hα4β2 nAChRs (P17787 26-502): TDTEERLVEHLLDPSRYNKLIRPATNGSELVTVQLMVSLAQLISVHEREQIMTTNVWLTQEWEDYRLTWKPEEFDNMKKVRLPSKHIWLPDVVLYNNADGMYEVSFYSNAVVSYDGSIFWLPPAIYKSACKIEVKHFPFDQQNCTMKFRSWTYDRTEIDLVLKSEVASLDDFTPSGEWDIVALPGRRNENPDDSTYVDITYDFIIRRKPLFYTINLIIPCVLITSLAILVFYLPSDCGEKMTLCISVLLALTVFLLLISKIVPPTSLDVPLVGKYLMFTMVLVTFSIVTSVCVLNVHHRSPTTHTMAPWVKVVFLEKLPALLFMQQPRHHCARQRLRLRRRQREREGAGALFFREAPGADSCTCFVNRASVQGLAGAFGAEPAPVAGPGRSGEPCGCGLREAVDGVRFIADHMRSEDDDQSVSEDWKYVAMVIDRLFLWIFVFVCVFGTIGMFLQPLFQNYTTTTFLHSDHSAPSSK

In the case of `O=C(CN1CCN(S(=O)(=O)c2ccc(F)cc2)CC1)Nc1ccccc1F` [Compound 1, N-(2-fluorophenyl)-2-(4-((4-fluorophenyl)sulfonyl)piperazin-1-yl)acetamide], the “effect on epibatidine concentration-response, Hα4β2 nAChRs” value (Hα4β2 nAChRs; [1]) is reported as “reduced the maximum efficacy”, the “IC70, Hα4β2 nAChRs” value (Hα4β2 nAChRs; [2]) is reported as ~30 µM and the “effect on epibatidine concentration-response, Hα3β4 nAChRs” value (Hα3β4 nAChRs; [1]) is reported as “reduced the maximum efficacy”. The “IC70, Hα3β4 nAChRs” value (Hα3β4 nAChRs; [2]) was ~30 µM.
For `O=S(=O)(c1ccc(F)cc1)N1CCNCC1` [Compound 3, 1-([4-fluorophenyl]sulfonyl)piperazine], the “effect / activity on Hα4β2 nAChRs” value (Hα4β2 nAChRs) was “no effect” and the “effect / activity on Hα3β4 nAChRs” value (Hα3β4 nAChRs) was “no effect”.
In the case of `O=C(CN1CCN(S(=O)(=O)c2ccc(F)cc2)CC1)Nc1ccc2[nH]ncc2c1` [Compound 11, 2-(4-((4-fluorophenyl)sulfonyl)piperazin-1-yl)-N-(1H-indazol-5-yl)acetamide], the “change in potency for Hα4β2 nAChRs” value (Hα4β2 nAChRs; compared to lead compound 1) is reported as “slight increase” and the “fold decrease in potency for Hα3β4 nAChRs” value (Hα3β4 nAChRs; compared to lead compound 1) is reported as 3 fold.
With `O=C(CN1CCN(S(=O)(=O)c2ccc(F)cc2)CC1)Nc1cc[nH]n1` [Compound 12, 2-(4-((4-fluorophenyl)sulfonyl)piperazin-1-yl)-N-(1H-pyrazol-3-yl)acetamide] the “change in potency for Hα4β2 nAChRs” value (Hα4β2 nAChRs; compared to lead compound 1) was “significant decrease”, the “effect / activity on Hα4β2 nAChRs” value (Hα4β2 nAChRs) was “abolished activity; also recorded: loss of activity” and the “change in potency for Hα3β4 nAChRs” value (Hα3β4 nAChRs; compared to lead compound 1) was “significant decrease”. For the same compound, the “effect / activity on Hα3β4 nAChRs” value (Hα3β4 nAChRs) was “abolished activity; also recorded: loss of activity”.
`COc1ccc(NC(=O)CN2CCN(S(=O)(=O)c3ccc(F)cc3)CC2)cc1` [Compound 13, 2-(4-((4-fluorophenyl)sulfonyl)piperazin-1-yl)-N-(4-methoxyphenyl)acetamide] was tested, and the “fold decrease in potency for Hα4β2 nAChRs” value (Hα4β2 nAChRs; compared to lead compound 1) was 2 fold and the “fold decrease in potency for Hα3β4 nAChRs” value (Hα3β4 nAChRs; compared to lead compound 1) was 3 fold.
For `O=C(CN1CCN(S(=O)(=O)c2ccc(F)cc2)CC1)Nc1ccc(F)cc1` [Compound 14, N-(4-fluorophenyl)-2-(4-((4-fluorophenyl)sulfonyl)-piperazin-1-yl)acetamide], the “change in potency for Hα4β2 nAChRs” value (Hα4β2 nAChRs; compared to lead compound 1) was “no significant change” and the “change in potency for Hα3β4 nAChRs” value (Hα3β4 nAChRs; compared to lead compound 1) was “no significant change”.
`O=C(CN1CCN(S(=O)(=O)c2ccc(F)cc2)CC1)Nc1ccccc1` [Compound 15, 2-(4-((4-fluorophenyl)sulfonyl)piperazin-1-yl)-N-phenylacetamide] was tested, and the “change in potency for Hα4β2 nAChRs” value (Hα4β2 nAChRs; compared to lead compound 1) was “no significant change” and the “fold decrease in potency for Hα3β4 nAChRs” value (Hα3β4 nAChRs; compared to lead compound 1) was 2 fold.
For `O=C(CN1CCN(S(=O)(=O)c2ccccc2F)CC1)Nc1ccccc1F` [Compound 16, N-(2-fluorophenyl)-2-(4-((2-fluorophenyl)sulfonyl)-piperazin-1-yl)acetamide], the “change in potency for Hα4β2 nAChRs” value (Hα4β2 nAChRs; compared to lead compound 1) was “no significant change”.
For `O=C(CN1CCN(S(=O)(=O)c2cccnc2)CC1)Nc1ccccc1F` [Compound 17, N-(2-fluorophenyl)-2-(4-(pyridin-3-ylsulfonyl)piperazin-1-yl)acetamide], the “fold decrease in potency for Hα4β2 nAChRs” value (Hα4β2 nAChRs; compared to lead compound 1) was 2 fold and the “fold decrease in potency for Hα3β4 nAChRs” value (Hα3β4 nAChRs; compared to lead compound 1) was 5 fold.
In the case of `O=C(CN1CCN(S(=O)(=O)c2ccccc2)CC1)Nc1ccccc1F` [Compound 18, N-(2-fluorophenyl)-2-(4-(phenylsulfonyl)piperazin-1-yl)acetamide], the “fold increase in potency for Hα4β2 nAChRs” value (Hα4β2 nAChRs; compared to lead compound 1) is reported as 2 fold and the “fold increase in potency for Hα3β4 nAChRs” value (Hα3β4 nAChRs; compared to lead compound 1) is reported as 2 fold.
In the case of `COc1ccc(S(=O)(=O)N2CCN(CC(=O)Nc3ccccc3F)CC2)cc1` [Compound 19, N-(2-fluorophenyl)-2-(4-((4-methoxyphenyl)sulfonyl)-piperazin-1-yl)acetamide], the “change in potency for Hα4β2 nAChRs” value (Hα4β2 nAChRs; compared to lead compound 1) is reported as “no significant change” and the “change in potency for Hα3β4 nAChRs” value (Hα3β4 nAChRs; compared to lead compound 1) is reported as “no significant change”.
For `O=C(CN1CCN(S(=O)(=O)c2ccccc2F)CC1)Nc1ccc(F)cc1` [Compound 20, N-(4-fluorophenyl)-2-(4-((2-fluorophenyl)sulfonyl)-piperazin-1-yl)acetamide], the “change in potency for Hα4β2 nAChRs” value (Hα4β2 nAChRs; compared to analog 16) was “no change” and the “fold increase in potency for Hα3β4 nAChRs” value (Hα3β4 nAChRs; compared to analog 16) was 6 fold.
`COc1ccc(NC(=O)CN2CCN(S(=O)(=O)c3ccccc3F)CC2)cc1` [Compound 21, 2-(4-((2-fluorophenyl)sulfonyl)piperazin-1-yl)-N-(4-methoxyphenyl)acetamide] was tested, and the “fold decrease in potency for Hα4β2 nAChRs” value (Hα4β2 nAChRs; compared to analog 16) was 2 fold and the “fold increase in potency for Hα3β4 nAChRs” value (Hα3β4 nAChRs; compared to analog 16) was 4 fold.
With `COC(=O)c1ccc(NC(=O)CN2CCN(S(=O)(=O)c3ccccc3F)CC2)cc1` [Compound 22, methyl 4-(2-(4-((2-fluorophenyl)sulfonyl)piperazin-1-yl)acetamido)benzoate] the “change in potency for Hα4β2 nAChRs” value (Hα4β2 nAChRs; compared to analog 16) was “no significant change” and the “fold increase in potency for Hα3β4 nAChRs” value (Hα3β4 nAChRs; compared to analog 16) was 8 fold.
With `O=C(CN1CCN(S(=O)(=O)c2ccccc2F)CC1)Nc1ccc(C(=O)O)cc1` [Compound 23, 4-(2-(4-((2-fluorophenyl)sulfonyl)piperazin-1-yl)acetamido)benzoic acid] the “effect / activity on Hα4β2 nAChRs” value (Hα4β2 nAChRs) was “loss of activity” and the “effect / activity on Hα3β4 nAChRs” value (Hα3β4 nAChRs) was “loss of activity”.
For `O=C(CN1CCN(S(=O)(=O)c2ccccc2F)CC1)Nc1cc[nH]n1` [Compound 24, 2-(4-((2-fluorophenyl)sulfonyl)piperazin-1-yl)-N-(1H-pyrazol-3-yl)acetamide], the “effect / activity on Hα4β2 nAChRs” value (Hα4β2 nAChRs) was “loss of activity” and the “effect / activity on Hα3β4 nAChRs” value (Hα3β4 nAChRs) was “loss of activity”.
`COc1ccc(NC(=O)CN2CCN(S(=O)(=O)c3cccnc3)CC2)cc1` [Compound 26, N-(4-methoxyphenyl)-2-(4-(pyridin-3-ylsulfonyl)-piperazin-1-yl)acetamide] was tested, and the “change in potency for Hα4β2 nAChRs” value (Hα4β2 nAChRs; compared to lead compound 1) was “significant decrease” and the “change in potency for Hα3β4 nAChRs” value (Hα3β4 nAChRs; compared to lead compound 1) was “significant decrease”.
In the case of `COc1ccc(S(=O)(=O)N2CCN(CC(=O)Nc3ccc(F)cc3)CC2)cc1` [Compound 28, N-(4-fluorophenyl)-2-(4-((4-methoxyphenyl)sulfonyl)-piperazin-1-yl)acetamide], the “fold decrease in potency for Hα4β2 nAChRs” value (Hα4β2 nAChRs; compared to lead compound 1) is reported as 2 fold and the “fold decrease in potency for Hα3β4 nAChRs” value (Hα3β4 nAChRs; compared to lead compound 1) is reported as 2 fold.

Reference: publication PMC3240716 (Journal of medicinal chemistry, 2011)
